Measurements from patent US20260297080A1, “BICYCLIC COMPOUNDS AS CDK INHIBITORS” (BeOne Medicines I GmbH, priority 2022, published 2026).

Legend:
[1] = molecular target: CDK2/Cyclin E1 (Homo sapiens, UniProt P24941); test: CDK2/Cyclin E1 Biochemical Assay (TR-FRET), 0.060 mM ATP; conditions: 0.15 μM Rb (Ser780)-biotin substrate, pH7.0, 60 min preincubation, 120 min reaction, room temperature
Outline: (§1)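 Phosphorylation of a biotin-tagged Rb Ser780 peptide (0.15 μM) is measured by time-resolved FRET between a europium-labelled phospho-specific antibody and streptavidin-XL665. Compound (0–10 μM) sits with enzyme 60 min first; the kinase reaction then proceeds 120 min at room temperature, pH 7.0.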

[2] = molecular target: CDK1/Cyclin B1 (Homo sapiens, UniProt P06493); test: CDK1/Cyclin B1 Biochemical Assay (TR-FRET), 0.015 mM ATP; conditions: 0.15 μM Rb (Ser780)-biotin substrate, pH7.0, 60 min preincubation, 120 min reaction, room temperature
Outline: as §1

Chain of CDK1/Cyclin B1 (P06493 whole entry): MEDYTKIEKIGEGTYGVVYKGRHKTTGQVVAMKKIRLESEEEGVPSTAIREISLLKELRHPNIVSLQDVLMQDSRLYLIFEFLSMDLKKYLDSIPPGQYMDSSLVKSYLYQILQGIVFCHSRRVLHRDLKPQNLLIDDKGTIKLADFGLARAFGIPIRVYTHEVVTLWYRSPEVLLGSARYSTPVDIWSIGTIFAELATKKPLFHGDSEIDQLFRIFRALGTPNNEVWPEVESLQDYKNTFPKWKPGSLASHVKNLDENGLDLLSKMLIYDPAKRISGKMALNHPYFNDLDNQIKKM
Chain of CDK1/Cyclin B1 (P14635 whole entry partner): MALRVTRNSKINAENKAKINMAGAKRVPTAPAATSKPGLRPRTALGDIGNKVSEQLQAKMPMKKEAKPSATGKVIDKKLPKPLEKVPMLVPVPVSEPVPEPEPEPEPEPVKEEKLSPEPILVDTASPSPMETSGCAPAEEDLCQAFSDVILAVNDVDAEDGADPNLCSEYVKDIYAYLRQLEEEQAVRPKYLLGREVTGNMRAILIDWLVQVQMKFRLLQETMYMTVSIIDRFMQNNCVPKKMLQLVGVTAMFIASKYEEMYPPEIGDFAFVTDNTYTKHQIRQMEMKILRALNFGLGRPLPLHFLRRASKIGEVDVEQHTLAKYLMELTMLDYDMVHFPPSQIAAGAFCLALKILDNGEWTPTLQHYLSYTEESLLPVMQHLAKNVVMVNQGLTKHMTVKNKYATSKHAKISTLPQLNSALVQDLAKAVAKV

Row | Compound | IC50 [1] | IC50 [2]
1 | CC(C)NC(=O)O[C@H]1CC[C@@H](c2cc(Nc3cc4c(cc3F)CNS4(=O)=O)n[nH]2)C1 (single isomer, unassigned) [Example 1a, cis-3-(3-((5-fluoro-1,1-dioxido-2,3-dihydrobenzo[d]isothiazol-6-yl)amino)-1H-pyrazol-5-yl)cyclopentyl isopropylcarbamate] | 22 nM | 860 nM
2 | CC(C)NC(=O)O[C@H]1CC[C@@H](c2cc(Nc3ccc4c(c3F)CN(C3CCC3O)S4(=O)=O)n[nH]2)C1 (single isomer, unassigned) [Example 103, cis-3-(3-((4-fluoro-2-(2-hydroxycyclobutyl)-1,1-dioxido-2,3-dihydrobenzo[d]isothiazol-5-yl)amino)-1H-pyrazol-5-yl)cyclopentyl isopropylcarbamate] | 3.8 nM | 350 nM
3 | CC(C)(C)NC(=O)O[C@H]1CC[C@@H](c2cc(Nc3ccc4c(c3F)CNS4(=O)=O)n[nH]2)C1 (relative stereo) [Example 159, cis-3-(3-((4-fluoro-1,1-dioxido-2,3-dihydrobenzo[d]isothiazol-5-yl)amino)-1H-pyrazol-5-yl)cyclopentyl tert-butylcarbamate] | 1 nM | 30 nM
4 | CC1(NC(=O)O[C@@H]2CC[C@H](c3cc(Nc4ccc5c(c4F)CS(=O)(=O)N5)n[nH]3)C2)CC1 (single isomer, unassigned) [Example 388a] | 1.2 nM | 36 nM
5 | C[C@]1(O)CC[C@@H](NC(=O)O[C@H]2CC[C@@H](c3cc(Nc4ccc5c(c4F)CNS5(=O)=O)n[nH]3)C2)CC1 (relative stereo) [Example 144, cis-3-(3-((4-fluoro-1,1-dioxido-2,3-dihydrobenzo[d]isothiazol-5-yl)amino)-1H-pyrazol-5-yl)cyclopentyl((1s,4s)-4-hydroxy-4-methylcyclohexyl)carbamate] | 3.9 nM | 302 nM
6 | COc1cc2c(cc1Nc1cc([C@@H]3CC[C@H](OC(=O)NC(C)C)C3)[nH]n1)S(=O)(=O)NC2(C)C (relative stereo) [Example 183, cis-3-(3-((5-methoxy-3,3-dimethyl-1,1-dioxido-2,3-dihydrobenzo[d]isothiazol-6-yl)amino)-1H-pyrazol-5-yl)cyclopentyl isopropylcarbamate] | 1390 nM | 7570 nM
7 | CC[C@H](C)NC(=O)O[C@H]1C[C@@H](c2cc(Nc3cc4c(cc3F)S(=O)(=O)NC4)n[nH]2)C1 [Example 410, (1s,3R)-3-(3-((6-fluoro-1,1-dioxido-2,3-dihydrobenzo[d]isothiazol-5-yl)amino)-1H-pyrazol-5-yl)cyclobutyl((S)-sec-butyl)carbamate] | 27 nM | 884 nM
8 | CC(C)NC(=O)O[C@H]1CC[C@@H](c2cc(Nc3ccc4c(c3F)CS(=O)(=O)N4C3COC3)n[nH]2)C1 (single isomer, unassigned) [Example 259b, cis-3-(3-((4-fluoro-1-(oxetan-3-yl)-2,2-dioxido-1,3-dihydrobenzo[c]isothiazol-5-yl)amino)-1H-pyrazol-5-yl)cyclopentyl isopropylcarbamate] | 3 nM | 157 nM
9 | COCC(C)(C)NC(=O)O[C@H]1CC[C@@H](c2cc(Nc3ccc4c(c3F)CS(=O)(=O)N4C3CC3)n[nH]2)C1 (relative stereo) [Example 401, cis-3-(3-((1-cyclopropyl-4-fluoro-2,2-dioxido-1,3-dihydrobenzo[c]isothiazol-5-yl)amino)-1H-pyrazol-5-yl)cyclopentyl(1-methoxy-2-methylpropan-2-yl)carbamate] | 2.1 nM | 105 nM
10 | CCNC(=O)O[C@H]1CC[C@@H](c2cc(Nc3ccc4c(c3F)CNS4(=O)=O)n[nH]2)C1 (relative stereo) [Example 141, cis-3-(3-((4-fluoro-1,1-dioxido-2,3-dihydrobenzo[d]isothiazol-5-yl)amino)-1H-pyrazol-5-yl)cyclopentyl ethylcarbamate] | 8 nM | 157 nM
11 | CC(C)NC(=O)O[C@H]1CC[C@@H](c2cc(Nc3ccc4c(c3Cl)CNS4(=O)=O)n[nH]2)C1 (single isomer, unassigned) [Example 38b, cis-3-(3-((4-chloro-1,1-dioxido-2,3-dihydrobenzo[d]isothiazol-5-yl)amino)-1H-pyrazol-5-yl)cyclopentyl isopropylcarbamate] | 13 nM | 279 nM
12 | CC(C)NC(=O)O[C@H]1CC[C@@H](c2cc(Nc3ccc4c(c3F)CN(CC3CCNC3=O)S4(=O)=O)n[nH]2)C1 (relative stereo) [Example 110, cis-3-(3-((4-fluoro-1,1-dioxido-2-((2-oxopyrrolidin-3-yl)methyl)-2,3-dihydrobenzo[d]isothiazol-5-yl)amino)-1H-pyrazol-5-yl)cyclopentyl isopropylcarbamate] | 2.7 nM | 225 nM
13 | [2H]C([2H])([2H])C1c2cc(Nc3cc([C@@H]4CC[C@H](OC(=O)N[C@@H](C)CC)C4)[nH]n3)cc(F)c2N(C([2H])([2H])[2H])S1(=O)=O (relative stereo) [Example 286, cis-3-(3-((7-fluoro-1,3-bis(methyl-d3)-2,2-dioxido-1,3-dihydrobenzo[c]isothiazol-5-yl)amino)-1H-pyrazol-5-yl)cyclopentyl((S)-sec-butyl)carbamate] | 11 nM | 174 nM
14 | CCCNC(=O)O[C@H]1CC[C@@H](c2cc(Nc3ccc4c(c3F)S(=O)(=O)NC4)n[nH]2)C1 (single isomer, unassigned) [Example 189b, cis-3-(3-((7-fluoro-1,1-dioxido-2,3-dihydrobenzo[d]isothiazol-6-yl)amino)-1H-pyrazol-5-yl)cyclopentyl propylcarbamate] | 2.7 nM | 41 nM
15 | CC(C)NC(=O)O[C@H]1CC[C@@H](c2cc(Nc3ccc4c(c3)S(=O)(=O)NC4=O)n[nH]2)C1 (relative stereo) [Example 16, cis-3-(3-((1,1-dioxido-3-oxo-2,3-dihydrobenzo[d]isothiazol-6-yl)amino)-1H-pyrazol-5-yl)cyclopentyl isopropylcarbamate] | 18 nM | 385 nM
16 | CC(C)NC(=O)O[C@H]1CC[C@@H](c2cc(Nc3ccc4c(c3F)CN(CC3COC3)S4(=O)=O)n[nH]2)C1 (relative stereo) [Example 97, cis-3-(3-((4-fluoro-2-(oxetan-3-ylmethyl)-1,1-dioxido-2,3-dihydrobenzo[d]isothiazol-5-yl)amino)-1H-pyrazol-5-yl)cyclopentyl isopropylcarbamate] | 5.2 nM | 449 nM
17 | CC[C@H](C)NC(=O)O[C@H]1CC[C@@H](c2cc(Nc3ccc4c(c3F)CN(CCO)S4(=O)=O)n[nH]2)C1 (relative stereo) [Example 127, cis-3-(3-((4-fluoro-2-(2-hydroxyethyl)-1,1-dioxido-2,3-dihydrobenzo[d]isothiazol-5-yl)amino)-1H-pyrazol-5-yl)cyclopentyl((S)-sec-butyl)carbamate] | 1.9 nM | 176 nM
18 | CC(C)NC(=O)O[C@H]1CC[C@@H](c2cc(Nc3ccc4c(c3)CS(=O)(=O)N4CCC3CCOCC3)n[nH]2)C1 (relative stereo) [Example 217, cis-3-(3-((2,2-dioxido-1-(2-(tetrahydro-2H-pyran-4-yl)ethyl)-1,3-dihydrobenzo[c]isothiazol-5-yl)amino)-1H-pyrazol-5-yl)cyclopentyl isopropylcarbamate] | 8.8 nM | 126 nM
19 | O=C(NC1(CO)CCC1)O[C@H]1CC[C@@H](c2cc(Nc3cc4c(cc3F)NS(=O)(=O)C4)n[nH]2)C1 (relative stereo) [Example 408, cis-3-(3-((6-fluoro-2,2-dioxido-1,3-dihydrobenzo[c]isothiazol-5-yl)amino)-1H-pyrazol-5-yl)cyclopentyl(1-(hydroxymethyl)cyclobutyl)carbamate] | 35 nM | 1100 nM
20 | COCC(C)NC(=O)O[C@H]1CC[C@@H](c2cc(Nc3ccc4c(c3F)CN(C3CC3)S4(=O)=O)n[nH]2)C1 (relative stereo) [Example 361, cis-3-(3-((2-cyclopropyl-4-fluoro-1,1-dioxido-2,3-dihydrobenzo[d]isothiazol-5-yl)amino)-1H-pyrazol-5-yl)cyclopentyl(1-methoxypropan-2-yl)carbamate] | 8.4 nM | 349 nM
21 | COc1cc2c(cc1Nc1cc([C@@H]3CC[C@H](OC(=O)NC(C)C)C3)[nH]n1)CNS2(=O)=O (relative stereo) [Example 15, cis-3-(3-((6-methoxy-1,1-dioxido-2,3-dihydrobenzo[d]isothiazol-5-yl)amino)-1H-pyrazol-5-yl)cyclopentyl isopropylcarbamate] | 23 nM | 1070 nM
22 | CC(C)NC(=O)O[C@H]1CC[C@@H](c2cc(Nc3ccc4c(c3F)CS(=O)(=O)N4CC(F)(F)F)n[nH]2)C1 (single isomer, unassigned) [Example 263b, cis-3-(3-((4-fluoro-2,2-dioxido-1-(2,2,2-trifluoroethyl)-1,3-dihydrobenzo[c]isothiazol-5-yl)amino)-1H-pyrazol-5-yl)cyclopentyl isopropylcarbamate] | 5.1 nM | 91 nM
23 | COc1cc2c(cc1Nc1cc([C@@H]3CC[C@H](OC(=O)NC(C)C)C3)[nH]n1)C(C)(C)NS2(=O)=O (relative stereo) [Example 23, cis-3-(3-((6-methoxy-3,3-dimethyl-1,1-dioxido-2,3-dihydrobenzo[d]isothiazol-5-yl)amino)-1H-pyrazol-5-yl)cyclopentyl isopropylcarbamate] | 244 nM | 1170 nM
24 | O=C(NCCC(F)(F)F)O[C@H]1CC[C@@H](c2cc(Nc3ccc4c(c3F)CNS4(=O)=O)n[nH]2)C1 (single isomer, unassigned) [Example 154a, cis-3-(3-((4-fluoro-1,1-dioxido-2,3-dihydrobenzo[d]isothiazol-5-yl)amino)-1H-pyrazol-5-yl)cyclopentyl(3,3,3-trifluoropropyl)carbamate] | 2.3 nM | 187 nM
